Values after ≈ are worked out from the molar mass of the structure shown.
Key:
Enterobacter cloacae = test: In vitro antibacterial activity against Enterobacter cloacae 1321E by agar dilution method using Mueller-Hinton; assay type: functional
Pseudomonas aeruginosa [1] = test: In vitro antibacterial activity against Pseudomonas aeruginosa 9027 by agar dilution method using Mueller-Hinton; assay type: functional
Streptococcus pyogenes = test: In vitro antibacterial activity against Streptococcus pyogenes 308A by agar dilution method using Mueller-Hinton; assay type: functional
Klebsiella aerogenes = test: In vitro antibacterial activity against Klebsiella aerogenes 1522E by agar dilution method using Mueller-Hinton; assay type: functional
Staphylococcus aureus [2] = test: In vitro antibacterial activity against Staphylococcus aureus SG 511 by agar dilution method using Mueller-Hinton; assay type: functional
Escherichia coli [3] = test: In vitro antibacterial activity against Escherichia coli 1507E by agar dilution method using Mueller-Hinton; assay type: functional
Staphylococcus aureus [4] = test: In vitro antibacterial activity against Staphylococcus aureus SG 503 by agar dilution method using Mueller-Hinton; assay type: functional
Escherichia coli [5] = test: In vitro antibacterial activity against Escherichia coli 078 by agar dilution method using Mueller-Hinton; assay type: functional
Pseudomonas aeruginosa [6] = test: In vitro antibacterial activity against Pseudomonas aeruginosa 1592E by agar dilution method using Mueller-Hinton; assay type: functional
Salmonella typhimurium = test: In vitro antibacterial activity against Salmonella Typhimurium by agar dilution method using Mueller-Hinton; assay type: functional, Salmonella enterica subsp. enterica serovar Typhimurium; details: Salmonella enterica
Staphylococcus aureus [7] = test: In vitro antibacterial activity against Staphylococcus aureus SG 285 by agar dilution method using Mueller-Hinton; assay type: functional
Pseudomonas aeruginosa [8] = test: In vitro antibacterial activity against Pseudomonas aeruginosa 1771M by agar dilution method using Mueller-Hinton; assay type: functional
[9] = Pharmacokinetic studies were carried out to determine the clearance after administration at 20 mg/kg intravenously in rat; assay type: ADME, organism-based; design: dose 20 mg/kg, route intravenous; details: in vivo, iv
[10] = The area under concentration-time curve(AUC) was determined at 20 mg/kg of compound dose, administered intravenously in rat; assay type: ADME, organism-based; design: dose 20 mg/kg, route intravenous; details: in vivo, iv

Compound | MIC (Enterobacter cloacae) | MIC (Pseudomonas aeruginosa [1]) | MIC (Streptococcus pyogenes) | MIC (Klebsiella aerogenes) | MIC (Staphylococcus aureus [2]) | MIC (Escherichia coli [3]) | MIC (Staphylococcus aureus [4]) | MIC (Escherichia coli [5]) | MIC (Pseudomonas aeruginosa [6]) | MIC (Salmonella typhimurium) | MIC (Staphylococcus aureus [7]) | MIC (Pseudomonas aeruginosa [8]) | clearance [9] | AUC [10]
C[C@@H](O)[C@H]1C(=O)N2C(C(=O)O)=C(S[C@@H]3CN[C@H](CSc4nnnn4CCS(=O)(=O)N(C)C)C3)[C@H](C)[C@H]12 | 0.025 µg/mL (≈ 0.0445 µM) | 6.25 µg/mL (≈ 11.1 µM) | 7 ng/mL (≈ 0.0125 µM) | 0.049 µg/mL (≈ 0.0872 µM) | 0.098 µg/mL (≈ 0.174 µM) | 0.025 µg/mL (≈ 0.0445 µM) | 0.025 µg/mL (≈ 0.0445 µM) | 0.025 µg/mL (≈ 0.0445 µM) | 12.5 µg/mL (≈ 22.3 µM) | 0.049 µg/mL (≈ 0.0872 µM) | 0.098 µg/mL (≈ 0.174 µM) | 0.391 µg/mL (≈ 0.696 µM) | – | –
C[C@@H](O)[C@H]1C(=O)N2C(C(=O)O)=C(S[C@@H]3CN[C@H](CSc4nnnn4CCO)C3)[C@H](C)[C@H]12 | 0.049 µg/mL (≈ 0.104 µM) | 1.56 µg/mL (≈ 3.32 µM) | 7 ng/mL (≈ 0.0149 µM) | 0.049 µg/mL (≈ 0.104 µM) | 0.098 µg/mL (≈ 0.208 µM) | 0.025 µg/mL (≈ 0.0531 µM) | 0.049 µg/mL (≈ 0.104 µM) | 0.025 µg/mL (≈ 0.0531 µM) | 1.56 µg/mL (≈ 3.32 µM) | 0.049 µg/mL (≈ 0.104 µM) | 0.098 µg/mL (≈ 0.208 µM) | 0.195 µg/mL (≈ 0.414 µM) | – | –
C[C@@H](O)[C@H]1C(=O)N2C(C(=O)O)=C(S[C@@H]3CN[C@H](CSc4nnnn4CCC(N)=O)C3)[C@H](C)[C@H]12 | 0.025 µg/mL (≈ 0.0502 µM) | 1.56 µg/mL (≈ 3.14 µM) | 13 ng/mL (≈ 0.0261 µM) | 0.049 µg/mL (≈ 0.0985 µM) | 0.098 µg/mL (≈ 0.197 µM) | 0.025 µg/mL (≈ 0.0502 µM) | 0.025 µg/mL (≈ 0.0502 µM) | 0.025 µg/mL (≈ 0.0502 µM) | 0.781 µg/mL (≈ 1.57 µM) | 0.049 µg/mL (≈ 0.0985 µM) | 0.098 µg/mL (≈ 0.197 µM) | 0.195 µg/mL (≈ 0.392 µM) | – | –
C[C@@H](O)[C@H]1C(=O)N2C(C(=O)O)=C(S[C@@H]3CN[C@H](CSc4nnnn4-c4ccccc4)C3)[C@H](C)[C@H]12 | 0.098 µg/mL (≈ 0.195 µM) | 50 µg/mL (≈ 99.5 µM) | 7 ng/mL (≈ 0.0139 µM) | 0.391 µg/mL (≈ 0.778 µM) | 0.049 µg/mL (≈ 0.0975 µM) | 0.391 µg/mL (≈ 0.778 µM) | 0.025 µg/mL (≈ 0.0497 µM) | 0.195 µg/mL (≈ 0.388 µM) | 50 µg/mL (≈ 99.5 µM) | 0.098 µg/mL (≈ 0.195 µM) | 0.049 µg/mL (≈ 0.0975 µM) | 3.12 µg/mL (≈ 6.22 µM) | – | –
CNC(=O)CCn1nnnc1SC[C@@H]1C[C@H](SC2=C(C(=O)O)N3C(=O)[C@H]([C@@H](C)O)[C@H]3[C@H]2C)CN1 | 0.025 µg/mL (≈ 0.0489 µM) | 1.56 µg/mL (≈ 3.05 µM) | 7 ng/mL (≈ 0.0137 µM) | 0.049 µg/mL (≈ 0.0958 µM) | 0.098 µg/mL (≈ 0.192 µM) | 0.025 µg/mL (≈ 0.0489 µM) | 0.049 µg/mL (≈ 0.0958 µM) | 0.025 µg/mL (≈ 0.0489 µM) | 1.56 µg/mL (≈ 3.05 µM) | 0.049 µg/mL (≈ 0.0958 µM) | 0.098 µg/mL (≈ 0.192 µM) | 0.391 µg/mL (≈ 0.764 µM) | – | –
C[C@@H](O)[C@H]1C(=O)N2C(C(=O)O)=C(S[C@@H]3CN[C@H](CSc4nnnn4C)C3)[C@H](C)[C@H]12 | 0.025 µg/mL (≈ 0.0567 µM) | 0.781 µg/mL (≈ 1.77 µM) | 4 ng/mL (≈ 0.00908 µM) | 0.025 µg/mL (≈ 0.0567 µM) | 0.025 µg/mL (≈ 0.0567 µM) | 0.025 µg/mL (≈ 0.0567 µM) | 0.025 µg/mL (≈ 0.0567 µM) | 0.025 µg/mL (≈ 0.0567 µM) | 0.781 µg/mL (≈ 1.77 µM) | 0.025 µg/mL (≈ 0.0567 µM) | 0.049 µg/mL (≈ 0.111 µM) | 0.195 µg/mL (≈ 0.443 µM) | 21.8 mL/min/kg | 15900 ng·h/mL
C[C@@H](O)[C@H]1C(=O)N2C(C(=O)O)=C(S[C@@H]3CN[C@H](CSc4nnnn4-c4ccncc4)C3)[C@H](C)[C@H]12 | 0.098 µg/mL (≈ 0.195 µM) | 50 µg/mL (≈ 99.3 µM) | 7 ng/mL (≈ 0.0139 µM) | 0.195 µg/mL (≈ 0.387 µM) | 0.049 µg/mL (≈ 0.0973 µM) | 0.195 µg/mL (≈ 0.387 µM) | 0.049 µg/mL (≈ 0.0973 µM) | 0.098 µg/mL (≈ 0.195 µM) | 50 µg/mL (≈ 99.3 µM) | 0.049 µg/mL (≈ 0.0973 µM) | 0.098 µg/mL (≈ 0.195 µM) | 0.781 µg/mL (≈ 1.55 µM) | – | –
CNS(=O)(=O)CCn1nnnc1SC[C@@H]1C[C@H](SC2=C(C(=O)O)N3C(=O)[C@H]([C@@H](C)O)[C@H]3[C@H]2C)CN1 | 0.025 µg/mL (≈ 0.0456 µM) | 3.12 µg/mL (≈ 5.71 µM) | 7 ng/mL (≈ 0.0128 µM) | 0.049 µg/mL (≈ 0.0895 µM) | 0.098 µg/mL (≈ 0.179 µM) | 0.025 µg/mL (≈ 0.0456 µM) | 0.025 µg/mL (≈ 0.0456 µM) | 0.025 µg/mL (≈ 0.0456 µM) | 3.12 µg/mL (≈ 5.71 µM) | 0.049 µg/mL (≈ 0.0895 µM) | 0.098 µg/mL (≈ 0.179 µM) | 0.391 µg/mL (≈ 0.714 µM) | – | –
C[C@@H](O)[C@H]1C(=O)N2C(C(=O)O)=C(S[C@@H]3CN[C@H](CSc4nnnn4CCN(C)C)C3)[C@H](C)[C@H]12 | 0.049 µg/mL (≈ 0.0985 µM) | 3.12 µg/mL (≈ 6.28 µM) | 13 ng/mL (≈ 0.0261 µM) | 0.098 µg/mL (≈ 0.197 µM) | 0.049 µg/mL (≈ 0.0985 µM) | 0.049 µg/mL (≈ 0.0985 µM) | 0.025 µg/mL (≈ 0.0502 µM) | 0.025 µg/mL (≈ 0.0502 µM) | 3.12 µg/mL (≈ 6.28 µM) | 0.098 µg/mL (≈ 0.197 µM) | 0.098 µg/mL (≈ 0.197 µM) | 0.195 µg/mL (≈ 0.392 µM) | – | –
C[C@@H](O)[C@H]1C(=O)N2C(C(=O)O)=C(S[C@@H]3CN[C@H](CSc4nnnn4CC(=O)N(C)C)C3)[C@H](C)[C@H]12 | 0.049 µg/mL (≈ 0.0958 µM) | 3.12 µg/mL (≈ 6.11 µM) | 13 ng/mL (≈ 0.0254 µM) | 0.098 µg/mL (≈ 0.192 µM) | 0.195 µg/mL (≈ 0.381 µM) | 0.049 µg/mL (≈ 0.0958 µM) | 0.049 µg/mL (≈ 0.0958 µM) | 0.025 µg/mL (≈ 0.0489 µM) | 3.12 µg/mL (≈ 6.11 µM) | 0.049 µg/mL (≈ 0.0958 µM) | 0.195 µg/mL (≈ 0.381 µM) | 0.391 µg/mL (≈ 0.764 µM) | – | –
C[C@@H](O)[C@H]1C(=O)N2C(C(=O)[O-])=C(S[C@@H]3CN[C@H](CSc4nnnn4CC[N+](C)(C)C)C3)[C@H](C)[C@H]12 | 0.098 µg/mL (≈ 0.192 µM) | 0.781 µg/mL (≈ 1.53 µM) | 25 ng/mL (≈ 0.0489 µM) | 0.195 µg/mL (≈ 0.381 µM) | 0.098 µg/mL (≈ 0.192 µM) | 0.098 µg/mL (≈ 0.192 µM) | 0.049 µg/mL (≈ 0.0958 µM) | 0.049 µg/mL (≈ 0.0958 µM) | 0.781 µg/mL (≈ 1.53 µM) | 0.195 µg/mL (≈ 0.381 µM) | 0.195 µg/mL (≈ 0.381 µM) | 0.195 µg/mL (≈ 0.381 µM) | – | –
CNC(=O)Cn1nnnc1SC[C@@H]1C[C@H](SC2=C(C(=O)O)N3C(=O)[C@H]([C@@H](C)O)[C@H]3[C@H]2C)CN1 | 0.049 µg/mL (≈ 0.0985 µM) | 1.56 µg/mL (≈ 3.14 µM) | 13 ng/mL (≈ 0.0261 µM) | 0.098 µg/mL (≈ 0.197 µM) | 0.195 µg/mL (≈ 0.392 µM) | 0.049 µg/mL (≈ 0.0985 µM) | 0.098 µg/mL (≈ 0.197 µM) | 0.025 µg/mL (≈ 0.0502 µM) | 1.56 µg/mL (≈ 3.14 µM) | 0.098 µg/mL (≈ 0.197 µM) | 0.195 µg/mL (≈ 0.392 µM) | 0.391 µg/mL (≈ 0.786 µM) | – | –
C[C@@H](O)[C@H]1C(=O)N2C(C(=O)O)=C(SCCNC=N)C[C@H]12 [IMIPENEM ANHYDROUS] | 0.195 µg/mL (≈ 0.651 µM) | 0.781 µg/mL (≈ 2.61 µM) | 7 ng/mL (≈ 0.0234 µM) | 0.391 µg/mL (≈ 1.31 µM) | 0.025 µg/mL (≈ 0.0835 µM) | 0.195 µg/mL (≈ 0.651 µM) | 0.013 µg/mL (≈ 0.0434 µM) | 0.098 µg/mL (≈ 0.327 µM) | 1.56 µg/mL (≈ 5.22 µM) | 0.781 µg/mL (≈ 2.61 µM) | 0.025 µg/mL (≈ 0.0835 µM) | 0.195 µg/mL (≈ 0.651 µM) | 61.5 mL/min/kg | 5500 ng·h/mL
C[C@@H](O)[C@H]1C(=O)N2C(C(=O)O)=C(S[C@@H]3CN[C@H](C(=O)N(C)C)C3)[C@H](C)[C@H]12 [MEROPENEM] | 0.025 µg/mL (≈ 0.0652 µM) | 0.195 µg/mL (≈ 0.509 µM) | 13 ng/mL (≈ 0.0339 µM) | 0.049 µg/mL (≈ 0.128 µM) | 0.195 µg/mL (≈ 0.509 µM) | 0.025 µg/mL (≈ 0.0652 µM) | 0.098 µg/mL (≈ 0.256 µM) | 0.025 µg/mL (≈ 0.0652 µM) | 0.195 µg/mL (≈ 0.509 µM) | 0.049 µg/mL (≈ 0.128 µM) | 0.195 µg/mL (≈ 0.509 µM) | 0.049 µg/mL (≈ 0.128 µM) | – | –

Reference: ChEMBL document CHEMBL1133208, “Synthesis and biological properties of new 1beta-methylcarbapenems having tetrazolothioether moiety” (Bioorg Med Chem Lett, 2000)
